Results taken from BindingDB's records for doi:10.1021/acs.jmedchem.7b00876 (University of Wisconsin-Madison, 2017).

Biological target: T1, Parathyroid hormone/parathyroid hormone-related peptide receptor (Homo sapiens, UniProt Q03431)
T1 sequence (Q03431 whole entry): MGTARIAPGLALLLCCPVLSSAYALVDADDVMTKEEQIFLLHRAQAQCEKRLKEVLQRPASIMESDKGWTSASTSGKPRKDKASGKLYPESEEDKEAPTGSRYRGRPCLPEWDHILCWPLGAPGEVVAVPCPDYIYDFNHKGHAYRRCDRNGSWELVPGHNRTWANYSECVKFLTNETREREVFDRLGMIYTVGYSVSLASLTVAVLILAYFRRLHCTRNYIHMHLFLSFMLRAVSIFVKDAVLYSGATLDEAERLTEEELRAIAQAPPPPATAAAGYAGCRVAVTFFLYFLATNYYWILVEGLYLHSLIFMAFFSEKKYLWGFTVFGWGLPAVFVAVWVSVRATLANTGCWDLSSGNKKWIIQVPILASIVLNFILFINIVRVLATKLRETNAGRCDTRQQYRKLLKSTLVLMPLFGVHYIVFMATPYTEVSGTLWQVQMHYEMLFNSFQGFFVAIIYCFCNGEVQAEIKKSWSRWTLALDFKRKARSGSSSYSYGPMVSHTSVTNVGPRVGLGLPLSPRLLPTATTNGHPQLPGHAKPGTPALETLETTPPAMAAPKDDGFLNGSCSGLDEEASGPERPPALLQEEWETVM
Assay: Agonist activity at human PTH1 receptor expressed in human GP2.3 cells assessed as induction of cAMP after 12 to 20 mins by luciferase reporter gene assay

For CC[C@H](C)[C@H](NC(=O)[C@H](CC(C)C)NC(=O)[C@H]1CNC[C@@H]1NC(=O)[C@H](Cc1c[nH]cn1)NC(=O)[C@H](CC(C)C)NC(=O)[C@H](Cc1ccccc1)NC(=O)[C@H]1CNC[C@@H]1NC(=O)[C@H](CCCNC(=N)N)NC(=O)[C@H](CCCNC(=N)N)NC(=O)[C@H](CCCNC(=N)N)NC(=O)[C@H]1CCC[C@@H]1NC(=O)[C@H](CC(=O)O)NC(=O)[C@H](CCC(N)=O)NC(=O)[C@@H](NC(=O)[C@H]1CCC[C@@H]1NC(=O)[C@H](CCCCN)NC(=O)CNC(=O)[C@H](CCCCN)NC(=O)[C@H](CC(=O)O)NC(=O)[C@H](Cc1c[nH]cn1)NC(=O)[C@H](CC(C)C)NC(=O)[C@H](CC(C)C)NC(=O)[C@H](CCC(N)=O)NC(=O)[C@H](Cc1c[nH]cn1)NC(=O)[C@H](CCC(=O)O)NC(=O)[C@H](CO)NC(=O)[C@@H](NC(=O)[C@H](C)N)C(C)C)[C@@H](C)CC)C(=O)N[C@@H](C)C(=O)N[C@H]1CCC[C@@H]1C(=O)N[C@H](C(=O)N[C@@H](Cc1c[nH]cn1)C(=O)N[C@H](C(=O)N[C@H]1CCC[C@@H]1C(N)=O)[C@@H](C)O)[C@@H](C)CC, the EC50 was 0.65 nM.
